According to patent US20170119776A1, “CHIRAL 2,5-DISUBSTITUTED CYCLOPENTANECARBOXYLIC ACID DERIVATIVES AND USE THEREOF” (BAYER PHARMA AKTIENGESELLSCHAFT, priority 2014, published 2017):

Experiments:
MMP-1 = target: T1, MMP-1 (Homo sapiens, UniProt P03956); test: In vitro MMP-1 inhibition test; assay type: biochemical
T1 construct: purchased R&D Systems 901-MP
T1 sequence (P03956 100-469): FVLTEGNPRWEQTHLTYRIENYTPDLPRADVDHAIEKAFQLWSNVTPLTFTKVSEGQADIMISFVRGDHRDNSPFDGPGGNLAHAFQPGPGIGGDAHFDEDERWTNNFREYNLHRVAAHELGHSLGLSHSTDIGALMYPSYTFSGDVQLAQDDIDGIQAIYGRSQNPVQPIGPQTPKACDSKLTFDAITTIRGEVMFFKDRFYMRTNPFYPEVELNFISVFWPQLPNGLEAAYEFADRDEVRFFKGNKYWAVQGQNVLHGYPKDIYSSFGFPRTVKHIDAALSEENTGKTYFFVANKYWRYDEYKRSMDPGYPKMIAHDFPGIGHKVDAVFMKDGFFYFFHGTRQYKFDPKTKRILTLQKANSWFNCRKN
Description: (§1) The activity strength of the compounds according to the invention towards other MMPs (and therefore their selectivity) is likewise ascertained in in vitro inhibition tests. The MMP-mediated amidolytic cleavage of a suitable peptide substrate also leads here to a fluorescent light increase. The signal intensity of the fluorescent light is directly proportional to the enzyme activity. The active concentration of a test compound at which half of the enzyme is inhibited (50% signal intensity of the fluorescent light) is given as IC50 value.
(§2) Recombinant MMP-1 (R&D Systems, 901-MP) is chemically activated in accordance with the manufacturer's instructions by using APMA. 1 μl of the test compound to be analysed (as a solution in DMSO, suitable concentrations e.g. 1 nM to 30 μM) is pipetted into 24 μl of activated enzyme (final concentration e.g. 2 nM) in reaction buffer (50 mM Tris/HCl pH 7.5, 10 mM CaCl2, 150 mM NaCl, 0.05% Brij®-35) in a white 384-hole microtiter plate (MTP). The enzymatic reaction is started by adding the intramolecularly quenched substrate Mca-Pro-Leu-Gly-Leu-Dpa(Dnp)-Ala-Arg-NH2 (final concentration e.g. 10 μM; R&D Systems, ES-001), such that a total test volume of 50 μl results. The progress of the MMP-1 reaction is measured by measuring the fluorescence intensity (excitation 320 nm, emission 410 nm) over a suitable period (e.g. over 120 min at a temperature of 32° C.).
(§3) The IC50 values were determined for racemates and enantiomers from differently generated DMSO stock solutions. Whereas an automatically produced DMSO stock solution from the internal substance logistics was used for racemates by means of a standard method, in the case of enantiomers a freshly produced, manually prepared DMSO stock solution was used in each case for a more precise direct comparison of the enantiomers with one another.

MMP-2 = target: T2, MMP-2 (Homo sapiens, UniProt P08253); test: In vitro MMP-2 inhibition test; assay type: biochemical
T2 construct: purchased R&D Systems 902-MP
T2 sequence (P08253 110-660): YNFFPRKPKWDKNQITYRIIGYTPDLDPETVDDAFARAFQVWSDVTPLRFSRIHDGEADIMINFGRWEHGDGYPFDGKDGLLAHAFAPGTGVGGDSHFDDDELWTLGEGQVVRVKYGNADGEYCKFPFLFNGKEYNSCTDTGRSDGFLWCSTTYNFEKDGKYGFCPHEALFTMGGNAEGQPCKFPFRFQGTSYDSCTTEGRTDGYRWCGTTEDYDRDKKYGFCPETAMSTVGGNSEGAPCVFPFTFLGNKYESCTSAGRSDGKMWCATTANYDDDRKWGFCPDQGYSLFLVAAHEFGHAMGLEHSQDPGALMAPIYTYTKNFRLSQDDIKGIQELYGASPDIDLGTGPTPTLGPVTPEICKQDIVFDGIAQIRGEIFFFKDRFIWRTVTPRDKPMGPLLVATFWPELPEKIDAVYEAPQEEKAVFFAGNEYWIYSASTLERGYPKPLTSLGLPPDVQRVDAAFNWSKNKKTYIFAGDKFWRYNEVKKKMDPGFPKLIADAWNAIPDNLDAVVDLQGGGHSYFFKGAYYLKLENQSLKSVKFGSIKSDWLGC
Description: as §1
as §2, with “MMP-2” for “MMP-1”, “902-MP)” for “901-MP)”, “instructions” for “instructions by”
as §3

| SMILES | IC50 (MMP-1) | IC50 (MMP-2) |
| --- | --- | --- |
| O=C(O)[C@H]1[C@H](Cn2nnc3ccccc3c2=O)CC[C@@H]1C(=O)c1ccc(-c2ccc(Cl)cc2)cc1 (racemic) [Comparative Example A-1, (1RS,2RS,5SR)-2-[(4′-chlorobiphenyl-4-yl)carbonyl]-5-[(4-oxo-1,2,3-benzotriazin-3(4H)-yl)methyl]cyclopentanecarboxylic acid (racemate)] | 220 nM | 1.1 nM |
| CCCCCOc1ccc(C(=O)CC(CCn2nnc3ccccc3c2=O)C(=O)O)cc1 (racemic) [Comparative Example B-1, (+/−)-4-Oxo-2-[2-(4-oxo-1,2,3-benzotriazin-3(4H)-yl)ethyl]-4-[4-(pentyloxy)phenyl]butanoic acid (racemate)] | > 40000 nM | 450 nM |
| O=C(O)[C@H]1[C@H](Cn2nnc3ccccc3c2=O)CC[C@@H]1C(=O)c1ccc(OCc2ccccc2)cc1 (racemic) [Example 1, (+/−)-(1RS,2RS,5SR)-2-[4-(Benzyloxy)benzoyl]-5-[(4-oxo-1,2,3-benzotriazin-3(4H)-yl)methyl]cyclopentanecarboxylic acid (racemate)] | 12000 nM | 18 nM |
| CCCCCOc1ccc(C(=O)CC(CCn2nnc3ccccc3c2=O)C(=O)O)cc1 (single isomer, unassigned; enantiomer 1) [Comparative Example B-2, (+)-4-Oxo-2-[2-(4-oxo-1,2,3-benzotriazin-3(4H)-yl)ethyl]-4-[4-(pentyloxy)phenyl]butanoic acid (enantiomer 1)] | > 40000 nM | 120 nM |
| O=C(O)[C@@H]1[C@@H](Cn2nnc3ccccc3c2=O)CC[C@H]1C(=O)c1ccc(-c2ccc(Cl)cc2)cc1 (single isomer, unassigned; enantiomer 2) [Comparative Example A-3, (1RS,2RS,5SR)-2-[(4′-Chlorobiphenyl-4-yl)carbonyl]-5-[(4-oxo-1,2,3-benzotriazin-3(4H)-yl)methyl]cyclopentanecarboxylic acid (enantiomer 2)] | 135 nM | 0.7 nM |
| O=C(O)[C@H]1[C@H](Cn2nnc3ccccc3c2=O)CC[C@@H]1C(=O)c1ccc(OCc2ccccc2)cc1 [Example 2, (+)-(1S,2S,5R)-2-[4-(Benzyloxy)benzoyl]-5-[(4-oxo-1,2,3-benzotriazin-3(4H)-yl)methyl]cyclopentanecarboxylic acid] | 5800 nM | 11.8 nM |
